Test results taken from PMC12291464, “Modifying Antifungal Peptides as Safe Food Preservatives” (Journal of Agricultural and Food Chemistry, 2025).

System: filamentous fungi conidia (spores)
Assay: Fungicidal assay (CFU log reduction)
Format: cell-based
Conditions: 8 μM H2O2
Experimental: A 10^4 CFU/mL conidia load was incubated in yeast extract (YE) medium at 37 °C for and 25 °C for and at 200 rpm for 4 h, and 100 μL was transferred to 900 μL of PBS with peptide (final conidia load = 10^3 CFU/mL). The negative control had no peptides, and for the positive control, we used H2O2 (final concentration of 8 μM). The treated conidia were incubated for an additional 4 h at the same temperature at 200 rpm. Once the second incubation was over, the inoculum suspension was diluted, and 100 μL of both the original and the dilution was spread on Petri plates with PDA with tetracycline (10 μg/mL) and chloramphenicol (25 μg/mL) medium to exclude the growth of bacteria. The plates were incubated at matching temperatures depending on the strain. After 48 h, the CFU/mL was calculated; CFU/mL = number of counted CFU × 10^–n (n = serial dilution).
2 Fungicidal activity of BP100 and P-113 and their derivatives. Spores were counted using a hemocytometer and diluted to […]. After 4 h of incubation with the selected peptides in two different concentrations (25 and 100 μM), samples were diluted and both original and diluted samples were plated. Colonies were counted after 48 h of incubation and are presented as the log reduction of CFU/mL. […] The experiments were repeated 3 times (biological repeats) in triplicate (average ± SEM). […]

With `OO` [H2O2] the “fungicidal activity, positive control” value was “completely eradicated”.
